Earlier results, collected in publication PMC9851200, “Multiparameter phenotypic screening for endogenous TFEB and TFE3 translocation identifies novel chemical series modulating lysosome function” (Autophagy, 2022).

Tests used:
Parameters in all cases: method as in original PKIS2 published data
[1] = target: T1, kinases (KINOMEscan panel) (Homo sapiens, UniProt O43318); details: Published KINOMEscan; ref original PKIS2 published data; cited from earlier work
T1 sequence (O43318 1-606): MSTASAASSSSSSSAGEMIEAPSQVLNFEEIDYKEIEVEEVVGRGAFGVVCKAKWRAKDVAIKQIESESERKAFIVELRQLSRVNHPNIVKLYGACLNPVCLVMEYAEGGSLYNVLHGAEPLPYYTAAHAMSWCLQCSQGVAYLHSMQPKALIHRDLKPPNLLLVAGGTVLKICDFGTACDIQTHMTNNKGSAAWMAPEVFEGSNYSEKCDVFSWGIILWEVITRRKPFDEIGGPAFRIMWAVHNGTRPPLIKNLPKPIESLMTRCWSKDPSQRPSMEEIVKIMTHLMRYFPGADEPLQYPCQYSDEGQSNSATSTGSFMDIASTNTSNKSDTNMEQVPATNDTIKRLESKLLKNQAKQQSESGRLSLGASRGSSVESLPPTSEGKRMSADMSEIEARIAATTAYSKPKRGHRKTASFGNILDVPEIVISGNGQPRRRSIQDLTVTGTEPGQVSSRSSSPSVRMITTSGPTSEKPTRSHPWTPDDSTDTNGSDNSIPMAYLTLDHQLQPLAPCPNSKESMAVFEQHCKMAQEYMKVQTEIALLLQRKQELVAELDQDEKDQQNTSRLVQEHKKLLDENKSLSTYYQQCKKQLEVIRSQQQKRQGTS

[2] = target: kinases (KINOMEscan panel) (Homo sapiens, UniProt P23458); details: JAK1(JH1domain-catalytic); Published KINOMEscan; ref original PKIS2 published data; cited from earlier work
[3] = target: kinases (KINOMEscan panel) (Homo sapiens, UniProt P31749); details: kinase AKT1; Published KINOMEscan; ref original PKIS2 published data; cited from earlier work
[4] = target: T2, kinases (KINOMEscan panel) (Homo sapiens, UniProt P42681); details: kinase TXK; Published KINOMEscan; ref original PKIS2 published data; cited from earlier work
T2 sequence (P42681 1-527): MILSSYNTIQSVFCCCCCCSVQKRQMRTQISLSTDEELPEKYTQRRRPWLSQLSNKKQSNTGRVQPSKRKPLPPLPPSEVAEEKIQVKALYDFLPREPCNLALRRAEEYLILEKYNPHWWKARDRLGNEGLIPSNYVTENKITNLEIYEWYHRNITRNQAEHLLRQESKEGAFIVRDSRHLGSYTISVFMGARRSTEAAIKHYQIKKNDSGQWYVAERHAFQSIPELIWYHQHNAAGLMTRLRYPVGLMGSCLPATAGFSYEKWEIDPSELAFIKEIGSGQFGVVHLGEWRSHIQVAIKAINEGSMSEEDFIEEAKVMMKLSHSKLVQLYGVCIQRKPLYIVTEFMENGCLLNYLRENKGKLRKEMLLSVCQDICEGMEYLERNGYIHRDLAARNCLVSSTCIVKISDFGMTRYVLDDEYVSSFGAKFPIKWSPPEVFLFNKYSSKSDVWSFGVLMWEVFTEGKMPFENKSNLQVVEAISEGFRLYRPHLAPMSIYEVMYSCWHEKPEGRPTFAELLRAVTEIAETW

[5] = target: kinases (KINOMEscan panel) (Homo sapiens, UniProt P53355); details: kinase DAPK1; Published KINOMEscan; ref original PKIS2 published data; cited from earlier work
[6] = target: kinases (KINOMEscan panel) (Homo sapiens, UniProt P54756); details: kinase EPHA5; Published KINOMEscan; ref original PKIS2 published data; cited from earlier work
[7] = target: kinases (KINOMEscan panel) (Homo sapiens, UniProt Q14012); details: CAMK1; Published KINOMEscan; ref original PKIS2 published data; cited from earlier work
[8] = target: kinases (KINOMEscan panel) (Homo sapiens, UniProt Q15303); details: kinase ERBB4; Published KINOMEscan; ref original PKIS2 published data; cited from earlier work
[9] = target: kinases (KINOMEscan panel) (Homo sapiens, UniProt Q16816); details: PHKG1; Published KINOMEscan; ref original PKIS2 published data; cited from earlier work
[10] = target: T3, kinases (KINOMEscan panel) (Homo sapiens, UniProt Q8IWQ3); details: kinase BRSK2; Published KINOMEscan; ref original PKIS2 published data; cited from earlier work
T3 sequence (Q8IWQ3 1-736): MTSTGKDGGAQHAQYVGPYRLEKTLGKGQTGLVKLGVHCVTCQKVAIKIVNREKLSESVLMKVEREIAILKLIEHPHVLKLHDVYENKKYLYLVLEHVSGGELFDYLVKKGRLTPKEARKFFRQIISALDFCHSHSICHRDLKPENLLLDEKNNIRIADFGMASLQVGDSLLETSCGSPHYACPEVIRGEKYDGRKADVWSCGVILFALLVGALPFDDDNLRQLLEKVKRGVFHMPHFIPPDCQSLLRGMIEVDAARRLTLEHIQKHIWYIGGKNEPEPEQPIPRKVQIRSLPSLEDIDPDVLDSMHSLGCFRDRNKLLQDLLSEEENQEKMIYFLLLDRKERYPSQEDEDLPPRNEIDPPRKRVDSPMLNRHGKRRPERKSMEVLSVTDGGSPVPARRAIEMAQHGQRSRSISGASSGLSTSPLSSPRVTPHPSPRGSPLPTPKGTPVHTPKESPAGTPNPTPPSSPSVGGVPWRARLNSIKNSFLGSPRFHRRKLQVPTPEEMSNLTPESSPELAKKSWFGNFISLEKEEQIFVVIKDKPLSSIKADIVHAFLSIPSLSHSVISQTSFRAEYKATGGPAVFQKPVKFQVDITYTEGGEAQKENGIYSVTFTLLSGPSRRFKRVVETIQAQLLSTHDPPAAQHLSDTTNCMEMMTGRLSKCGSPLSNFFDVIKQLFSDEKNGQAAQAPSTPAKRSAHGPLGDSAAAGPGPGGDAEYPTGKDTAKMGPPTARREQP

[11] = target: kinases (KINOMEscan panel) (Homo sapiens, UniProt Q9H4A3); details: Published KINOMEscan; ref original PKIS2 published data; cited from earlier work

Sequence of kinases (KINOMEscan panel) (Homo sapiens, UniProt P53355) (P53355 whole entry): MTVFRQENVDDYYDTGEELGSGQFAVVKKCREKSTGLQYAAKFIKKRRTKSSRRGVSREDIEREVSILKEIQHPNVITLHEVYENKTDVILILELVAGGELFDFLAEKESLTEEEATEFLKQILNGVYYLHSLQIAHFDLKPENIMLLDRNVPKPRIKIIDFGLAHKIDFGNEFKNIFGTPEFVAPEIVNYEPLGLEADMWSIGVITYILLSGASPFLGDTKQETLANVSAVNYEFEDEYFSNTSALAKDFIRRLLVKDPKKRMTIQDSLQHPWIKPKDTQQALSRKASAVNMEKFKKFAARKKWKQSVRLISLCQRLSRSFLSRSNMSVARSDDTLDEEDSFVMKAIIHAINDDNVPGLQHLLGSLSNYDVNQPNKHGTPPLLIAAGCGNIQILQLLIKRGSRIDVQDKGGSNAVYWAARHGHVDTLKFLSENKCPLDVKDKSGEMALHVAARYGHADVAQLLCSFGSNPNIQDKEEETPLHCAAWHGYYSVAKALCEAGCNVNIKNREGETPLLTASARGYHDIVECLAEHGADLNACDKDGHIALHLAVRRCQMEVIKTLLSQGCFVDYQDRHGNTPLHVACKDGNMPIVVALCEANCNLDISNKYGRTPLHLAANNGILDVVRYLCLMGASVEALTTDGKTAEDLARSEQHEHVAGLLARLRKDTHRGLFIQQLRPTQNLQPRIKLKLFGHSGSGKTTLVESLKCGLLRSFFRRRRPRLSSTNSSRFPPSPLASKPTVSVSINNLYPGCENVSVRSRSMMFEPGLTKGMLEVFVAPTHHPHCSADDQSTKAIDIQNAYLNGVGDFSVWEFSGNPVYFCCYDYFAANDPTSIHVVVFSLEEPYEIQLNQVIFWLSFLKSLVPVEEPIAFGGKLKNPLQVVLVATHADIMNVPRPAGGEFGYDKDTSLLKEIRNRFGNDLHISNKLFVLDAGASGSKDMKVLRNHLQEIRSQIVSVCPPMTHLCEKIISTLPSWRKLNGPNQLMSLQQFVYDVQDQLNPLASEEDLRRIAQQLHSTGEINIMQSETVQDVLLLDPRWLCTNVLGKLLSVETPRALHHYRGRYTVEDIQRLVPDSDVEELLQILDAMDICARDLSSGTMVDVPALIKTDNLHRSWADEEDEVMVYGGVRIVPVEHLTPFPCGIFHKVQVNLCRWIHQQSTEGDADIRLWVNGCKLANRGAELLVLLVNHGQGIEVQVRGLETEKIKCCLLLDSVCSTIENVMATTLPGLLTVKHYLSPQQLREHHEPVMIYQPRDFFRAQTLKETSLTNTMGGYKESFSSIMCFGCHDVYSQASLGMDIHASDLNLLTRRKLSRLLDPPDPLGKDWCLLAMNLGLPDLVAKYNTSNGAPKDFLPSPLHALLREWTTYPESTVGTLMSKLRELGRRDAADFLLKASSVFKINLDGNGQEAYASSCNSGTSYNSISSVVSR
Sequence of kinases (KINOMEscan panel) (Homo sapiens, UniProt P31749) (P31749 whole entry): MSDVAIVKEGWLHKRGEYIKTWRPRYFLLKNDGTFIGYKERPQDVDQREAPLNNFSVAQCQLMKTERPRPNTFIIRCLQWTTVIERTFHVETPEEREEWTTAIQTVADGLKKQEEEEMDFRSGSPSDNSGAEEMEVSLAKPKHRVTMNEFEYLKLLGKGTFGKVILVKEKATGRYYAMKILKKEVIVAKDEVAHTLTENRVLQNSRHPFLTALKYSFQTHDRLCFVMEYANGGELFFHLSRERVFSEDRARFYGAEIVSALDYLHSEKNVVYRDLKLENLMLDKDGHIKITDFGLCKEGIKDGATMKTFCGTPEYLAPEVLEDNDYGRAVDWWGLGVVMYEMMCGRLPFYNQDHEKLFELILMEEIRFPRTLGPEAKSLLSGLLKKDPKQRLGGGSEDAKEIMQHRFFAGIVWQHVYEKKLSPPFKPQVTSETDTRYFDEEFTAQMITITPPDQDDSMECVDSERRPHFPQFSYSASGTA
Sequence of kinases (KINOMEscan panel) (Homo sapiens, UniProt Q14012) (Q14012 whole entry): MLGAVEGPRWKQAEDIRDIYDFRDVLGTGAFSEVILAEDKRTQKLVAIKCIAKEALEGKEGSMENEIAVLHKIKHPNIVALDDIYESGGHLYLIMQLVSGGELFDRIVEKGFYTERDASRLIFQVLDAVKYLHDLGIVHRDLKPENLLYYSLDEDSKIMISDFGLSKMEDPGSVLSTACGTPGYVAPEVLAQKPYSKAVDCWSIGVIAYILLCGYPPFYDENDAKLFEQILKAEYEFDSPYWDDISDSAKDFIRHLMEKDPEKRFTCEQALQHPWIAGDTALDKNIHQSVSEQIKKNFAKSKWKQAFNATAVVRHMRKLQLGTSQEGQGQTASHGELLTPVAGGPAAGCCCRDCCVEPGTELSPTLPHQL
Sequence of kinases (KINOMEscan panel) (Homo sapiens, UniProt Q16816) (Q16816 whole entry): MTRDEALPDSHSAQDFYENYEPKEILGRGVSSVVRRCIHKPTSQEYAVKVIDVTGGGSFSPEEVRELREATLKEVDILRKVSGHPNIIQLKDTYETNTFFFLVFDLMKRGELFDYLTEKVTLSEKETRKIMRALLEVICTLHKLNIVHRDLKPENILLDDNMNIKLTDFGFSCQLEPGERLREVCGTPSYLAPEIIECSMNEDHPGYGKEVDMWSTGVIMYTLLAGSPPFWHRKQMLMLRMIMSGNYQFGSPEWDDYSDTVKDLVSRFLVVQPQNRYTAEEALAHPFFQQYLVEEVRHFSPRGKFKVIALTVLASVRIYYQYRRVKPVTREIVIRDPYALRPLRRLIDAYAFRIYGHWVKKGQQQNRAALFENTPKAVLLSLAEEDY
Sequence of kinases (KINOMEscan panel) (Homo sapiens, UniProt Q15303) (Q15303 26-1308): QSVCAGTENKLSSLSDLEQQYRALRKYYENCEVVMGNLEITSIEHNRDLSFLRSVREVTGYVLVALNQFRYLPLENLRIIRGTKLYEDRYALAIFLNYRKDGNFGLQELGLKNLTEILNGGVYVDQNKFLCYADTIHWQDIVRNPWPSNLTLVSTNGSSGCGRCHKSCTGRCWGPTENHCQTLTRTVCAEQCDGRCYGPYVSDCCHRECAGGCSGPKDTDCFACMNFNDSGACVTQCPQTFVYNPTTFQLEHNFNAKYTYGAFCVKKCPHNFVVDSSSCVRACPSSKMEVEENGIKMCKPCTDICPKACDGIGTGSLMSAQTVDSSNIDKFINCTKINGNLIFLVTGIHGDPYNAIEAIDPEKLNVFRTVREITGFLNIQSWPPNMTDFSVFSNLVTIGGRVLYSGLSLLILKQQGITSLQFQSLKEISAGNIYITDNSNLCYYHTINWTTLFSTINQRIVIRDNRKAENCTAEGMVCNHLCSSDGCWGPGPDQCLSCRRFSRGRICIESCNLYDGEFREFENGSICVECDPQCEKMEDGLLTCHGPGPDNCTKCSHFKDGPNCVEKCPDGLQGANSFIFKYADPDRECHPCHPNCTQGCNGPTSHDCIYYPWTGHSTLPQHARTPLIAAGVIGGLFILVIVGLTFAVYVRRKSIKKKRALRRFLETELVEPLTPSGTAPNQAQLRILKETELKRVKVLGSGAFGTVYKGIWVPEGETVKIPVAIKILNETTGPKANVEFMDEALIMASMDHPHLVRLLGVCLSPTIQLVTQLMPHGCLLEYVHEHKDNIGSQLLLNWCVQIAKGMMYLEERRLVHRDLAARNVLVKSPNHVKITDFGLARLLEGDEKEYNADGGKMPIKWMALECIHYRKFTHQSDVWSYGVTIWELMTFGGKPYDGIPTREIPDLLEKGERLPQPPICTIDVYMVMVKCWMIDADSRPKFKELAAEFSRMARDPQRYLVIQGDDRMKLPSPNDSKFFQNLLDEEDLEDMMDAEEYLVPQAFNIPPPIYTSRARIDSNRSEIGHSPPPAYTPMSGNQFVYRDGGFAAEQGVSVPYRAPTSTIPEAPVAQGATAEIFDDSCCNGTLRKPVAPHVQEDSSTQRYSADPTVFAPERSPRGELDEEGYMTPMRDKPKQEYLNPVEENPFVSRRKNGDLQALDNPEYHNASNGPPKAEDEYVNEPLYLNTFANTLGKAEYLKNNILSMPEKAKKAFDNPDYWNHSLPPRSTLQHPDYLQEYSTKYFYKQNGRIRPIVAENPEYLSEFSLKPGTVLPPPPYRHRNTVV
Sequence of kinases (KINOMEscan panel) (Homo sapiens, UniProt P23458) (P23458 whole entry): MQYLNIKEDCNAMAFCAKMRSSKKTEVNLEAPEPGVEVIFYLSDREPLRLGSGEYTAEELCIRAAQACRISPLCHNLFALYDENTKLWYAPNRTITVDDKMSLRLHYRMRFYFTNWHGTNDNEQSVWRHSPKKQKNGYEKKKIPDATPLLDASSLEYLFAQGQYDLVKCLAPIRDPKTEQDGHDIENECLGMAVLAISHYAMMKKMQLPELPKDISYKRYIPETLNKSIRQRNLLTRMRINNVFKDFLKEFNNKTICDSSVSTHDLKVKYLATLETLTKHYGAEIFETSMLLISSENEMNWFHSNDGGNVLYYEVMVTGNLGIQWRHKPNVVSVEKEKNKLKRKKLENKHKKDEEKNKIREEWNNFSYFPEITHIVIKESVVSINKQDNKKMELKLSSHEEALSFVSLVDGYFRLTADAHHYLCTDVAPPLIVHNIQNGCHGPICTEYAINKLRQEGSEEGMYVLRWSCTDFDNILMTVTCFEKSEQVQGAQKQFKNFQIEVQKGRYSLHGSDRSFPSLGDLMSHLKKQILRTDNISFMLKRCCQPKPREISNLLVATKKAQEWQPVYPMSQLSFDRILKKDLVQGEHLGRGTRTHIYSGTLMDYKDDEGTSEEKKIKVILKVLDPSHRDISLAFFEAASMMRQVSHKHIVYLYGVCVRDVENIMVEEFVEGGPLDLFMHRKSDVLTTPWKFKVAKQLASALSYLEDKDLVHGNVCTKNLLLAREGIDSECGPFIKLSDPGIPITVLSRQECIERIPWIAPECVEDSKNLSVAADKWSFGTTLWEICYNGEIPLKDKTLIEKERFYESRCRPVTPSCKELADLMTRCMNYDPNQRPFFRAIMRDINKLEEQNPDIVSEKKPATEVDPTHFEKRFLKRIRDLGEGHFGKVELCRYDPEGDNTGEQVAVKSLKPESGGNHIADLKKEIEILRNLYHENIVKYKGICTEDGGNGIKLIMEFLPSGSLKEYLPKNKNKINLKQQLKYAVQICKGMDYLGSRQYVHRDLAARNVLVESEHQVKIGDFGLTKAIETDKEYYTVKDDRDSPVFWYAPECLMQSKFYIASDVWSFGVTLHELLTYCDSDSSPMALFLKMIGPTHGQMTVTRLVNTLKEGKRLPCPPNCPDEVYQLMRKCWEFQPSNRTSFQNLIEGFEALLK

SMILES: Cc1cccc(-c2nc(Nc3ccncc3)c3ccccc3n2)n1 [NK215]
- KINOMEscan MAP3K7 [1]: 0
- KINOMEscan JAK1(JH1domain-catalytic) [2]: 0
- KINOMEscan AKT1 [3]: 20
- KINOMEscan TXK [4]: 11
- KINOMEscan DAPK1 [5]: 0
- KINOMEscan EPHA5 [6]: 0
- KINOMEscan CAMK1 [7]: 0
- KINOMEscan ERBB4 [8]: 0
- KINOMEscan PHKG1 [9]: 47
- KINOMEscan BRSK2 [10]: 11
- KINOMEscan WNK1 [11]: 0
